Measurements reported in patent US9233979B2, “Compounds that are ERK inhibitors” (Merck Sharp & Dohme Corp., priority 2012, dated 2016).

Biological target: phosphorylated active hERK2 enzyme (Homo sapiens (Human), UniProt P28482)
Experiment: Active Human ERK2 (hERK2) Activity Assay (IMAP-FP)
Type: biochemical
Settings: Table 6, 0.5 nM hERK2, 30 μM ATP, 10 point titration, read-out: AERK2 IC50
Method in brief: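 IMAP detection beads in buffer with 24 mM NaCl stopped the reaction, and fluorescence polarization was read after 60 min binding.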

Sequence of phosphorylated active hERK2 enzyme (P28482 whole entry): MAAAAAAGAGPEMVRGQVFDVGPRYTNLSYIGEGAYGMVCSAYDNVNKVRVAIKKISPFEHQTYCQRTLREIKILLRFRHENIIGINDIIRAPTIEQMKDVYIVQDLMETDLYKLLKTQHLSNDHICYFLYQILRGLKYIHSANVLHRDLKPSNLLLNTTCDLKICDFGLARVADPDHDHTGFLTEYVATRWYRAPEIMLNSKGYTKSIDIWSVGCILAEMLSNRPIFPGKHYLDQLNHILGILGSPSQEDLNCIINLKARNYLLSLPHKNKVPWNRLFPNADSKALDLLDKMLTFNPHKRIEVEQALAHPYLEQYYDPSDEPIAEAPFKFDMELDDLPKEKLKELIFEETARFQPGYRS

Work on COC(=O)Nc1n[nH]c2cc(NC(=O)N[C@@H]3CN(C)C[C@H]3c3ccccc3)ncc12 [Example 291, methyl[6-({[(3S,4R)-1-methyl-4-phenyl-pyrrolidin-3-yl]carbamoyl}-amino)-1H-pyrazolo[4,3-c]pyridin-3-yl]-carbamate] yielded an IC50 of 1 nM.
COC(=O)Nc1n[nH]c2cc(NC(=O)N[C@H](C)C3CCCCC3)ncc12 [Example 292, methyl [6-({[(1R)-1-cyclohexylethyl]-carbamoyl}amino)-1H-pyrazolo[4,3-c]pyridin-3-yl]-carbamate] was tested, and the IC50 was 19.7 nM.
COC(=O)Nc1n[nH]c2cc(NC(=O)NC3CNc4ccccc4C3)ncc12 (stereo not drawn) [Example 293, methyl {6-[(1,2,3,4-tetrahydroquinolin-3-ylcarbamoyl)-amino]-1H-pyrazolo[4,3-c]-pyridin-3-yl}-carbamate] gave an IC50 of 5.8 nM.
COC(=O)Nc1n[nH]c2cc(NC(=O)NC3COc4ccccc4C3)ncc12 (stereo not drawn) [Example 294, methyl {6-[(3,4-dihydro-2H-chromen-3-ylcarbamoyl)amino]-1H-pyrazolo[4,3-c]pyridin-3-yl}-carbamate] gave an IC50 of 26.4 nM.
For COC(=O)Nc1n[nH]c2cc(NC(=O)N[C@@H]3CCOc4ccccc43)ncc12 [Example 295, methyl (6-{[(4R)-3,4-dihydro-2H-chromen-4-ylcarbamoyl]-amino}-1H-pyrazolo[4,3-c]-pyridin-3-yl)-carbamate], the IC50 was 55 nM.
COC(=O)Nc1n[nH]c2cc(NC(=O)NCc3ccccc3OC(F)F)ncc12 [Example 296, methyl [6-({[2-(difluoromethoxy)-benzyl]carbamoyl}-amino)-1H-pyrazolo[4,3-c]-pyridin-3-yl}-carbamate] showed an IC50 of 2.5 nM.
For COC(=O)Nc1n[nH]c2cc(NC(=O)NCc3ccccc3OC)ncc12 [Example 297, methyl (6-{[(2-methoxybenzyl)-carbamoyl]amino}-1H-pyrazolo[4,3-c]pyridin-3-yl)-carbamate], the IC50 was 2 nM.
COC(=O)Nc1n[nH]c2cc(NC(=O)NCc3c(F)cccc3OC)ncc12 [Example 298, methyl (6-{[(2-fluoro-6-methoxy-benzyl)carbamoyl]-amino}-1H-pyrazolo[4,3-c]-pyridin-3-yl)-carbamate] was tested, and the IC50 was 1.2 nM.
With COC(=O)Nc1n[nH]c2cc(NC(=O)N[C@H](C)c3cccc(F)c3)ncc12 [Example 299, methyl [6-({[(1R)-1-(3-fluorophenyl)-ethyl]carbamoyl}-amino)-1H-pyrazolo[4,3-c]-pyridin-3-yl}-carbamate] the IC50 was 1.6 nM.
With COC(=O)Nc1n[nH]c2cc(NC(=O)N[C@H](C)c3ccc(F)c(Cl)c3)ncc12 [Example 300, methyl [6-({[(1R)-1-(3-chloro-4-fluorophenyl)ethyl]carbamoyl}amino)-1H-pyrazolo[4,3-c]pyridin-3-yl]-carbamate] the IC50 was 2.9 nM.
CC[C@@H](NC(=O)Nc1cc2[nH]nc(NC(=O)OC)c2cn1)c1ccc(Cl)cc1 [Example 301, methyl [6-({[(1R)-1-(4-chlorophenyl)-propyl]carbamoyl}amino)-1H-pyrazolo[4,3-c]-pyridin-3-yl]-carbamate] was tested, and the IC50 was 1.4 nM.
Compound COC(=O)Nc1n[nH]c2cc(NC(=O)N[C@H](C)c3ccc(Cl)c(Cl)c3)ncc12 [Example 302, methyl [6-({[(1R)-1-(3,4-dichloro-phenyl)ethyl]-carbamoyl}amino)-1H-pyrazolo[4,3-c]pyridin-3-yl]-carbamate] has an IC50 of 0.7 nM.
COC(=O)Nc1n[nH]c2cc(NC(=O)NC(C)c3ccc(F)c(F)c3)ncc12 (stereo not drawn) [Example 303, methyl [6-({[1-(3,4-difluoro-phenyl)ethyl]-carbamoyl}amino)-1H-pyrazolo[4,3-c]pyridin-3-yl]-carbamate] gave an IC50 of 3.1 nM.
COC(=O)Nc1n[nH]c2cc(NC(=O)N[C@H](C)c3ccc(Cl)c(C)c3)ncc12 [Example 304, methyl [6-({[(1R)-1-(4-chloro-3-methyl-phenyl)ethyl}-carbamoyl}amino)-1H-pyrazolo[4,3-c]pyridin-3-yl]-carbamate] gave an IC50 of 3.4 nM.
With COC(=O)Nc1n[nH]c2cc(NC(=O)N[C@H](C)c3ccccc3F)ncc12 [Example 305, methyl [6-({[(1R)-1-(2-fluorophenyl)-ethyl]carbamoyl}-amino)-1H-pyrazolo[4,3-c]-pyridin-3-yl]-carbamate] the IC50 was 7.3 nM.
With COC(=O)Nc1n[nH]c2cc(NC(=O)N[C@H](C)c3ccc(Cl)c(F)c3)ncc12 [Example 306, methyl [6-({[(1R)-1-(4-chloro-3-fluorophenyl)ethyl]carbamoyl}amino)-1H-pyrazolo[4,3-c]pyridin-3-yl]-carbamate] the IC50 was 1.5 nM.
With COC(=O)Nc1n[nH]c2cc(NC(=O)N[C@H](C)c3ccc(Cl)c(O)c3)ncc12 [Example 307, methyl [6-({[(1R)-1-(4-chloro-3-hydroxyphenyl)-ethyl]carbamoyl}-amino)-1H-pyrazolo[4,3-c]-pyridin-3-yl]-carbamate] the IC50 was 1.7 nM.
For C[C@@H](NC(=O)Nc1cc2[nH]nc(NC(=O)N[C@H](C)c3ccc(Cl)c(O)c3)c2cn1)c1ccc(Cl)c(O)c1 [Example 308, N′,N″′-1H-pyrazolo[4,3-c]-pyridine-3,6-diylbis{1-[(1R)-1-(4-chloro-3-hydroxyphenyl)-ethyl]urea}], the IC50 was 461 nM.
COC(=O)Nc1n[nH]c2cc(NC(=O)N[C@H](C)c3ccc(Cl)c(C(F)(F)F)c3)ncc12 [Example 309, methyl {6-[({(1R)-1-[4-chloro-3-(trifluoromethyl)-phenyl]ethyl}-carbamoyl)amino]-1H-pyrazolo[4,3-c]pyridin-3-yl}-carbamate] was tested, and the IC50 was 3.6 nM.
With C[C@@H](NC(=O)Nc1cc2[nH]nc(NC(=O)N[C@H](C)c3ccc(Cl)c(C(F)(F)F)c3)c2cn1)c1ccc(Cl)c(C(F)(F)F)c1 [Example 310, N′,N″′-1H-pyrazolo[4,3-c]-pyridine-3,6-diylbis(1-{(1R)-1-[4-chloro-3-(trifluoromethyl)-phenyl]ethyl}urea)] the IC50 was 2450 nM.
Work on COC(=O)Nc1n[nH]c2cc(NC(=O)N[C@H](C)c3ccc(Cl)nc3)ncc12 [Example 311, methyl [6-({[(1R)-1-(6-chloropyridin-3-yl)ethyl]-carbamoyl}amino)-1H-pyrazolo[4,3-c]pyridin-3-yl]-carbamate] yielded an IC50 of 19.1 nM.
With C[C@@H](NC(=O)Nc1cc2[nH]nc(NC(=O)N[C@H](C)c3ccc(Cl)nc3)c2cn1)c1ccc(Cl)nc1 [Example 312, N′,N″′-1H-pyrazolo[4,3-c]pyridine-3,6-diylbis{1-[(1R)-1-(6-chloropyridin-3-yl)ethyl]urea}] the IC50 was 134 nM.
Work on CCNC(=O)Nc1n[nH]c2cc(NC(=O)N[C@H](C)c3ccccc3)ncc12 [Example 313, (R)-1-(3-(3-ethylureido)-1H-pyrazolo[4,3-c]pyridin-6-yl)-3-(1-phenylethyl)urea] yielded an IC50 of 5.6 nM.
Compound COc1cc([C@@H](C)NC(=O)Nc2cc3[nH]nc(NC(=O)N[C@H](C)c4ccc(Cl)c(OC)c4)c3cn2)ccc1Cl [Example 314, 1,1′-(1H-pyrazolo[4,3-c]pyridine-3,6-diyl)bis(3-((R)-1-(4-chloro-3-methoxyphenyl)ethyl)urea)] has an IC50 of 732 nM.
For CCOC(=O)Nc1n[nH]c2cc(NC(=O)N[C@H](C)c3ccccc3)ncc12 [Example 315, (R)-ethyl(6-(3-(1-phenylethyl)ureido)-1H-pyrazolo[4,3-c]pyridin-3-yl)carbamate], the IC50 was 10 nM.
Compound C[C@@H](NC(=O)Nc1cc2[nH]nc(NCc3cccnc3)c2cn1)c1ccccc1 [Example 316, (R)-1-(1-phenylethyl)-3-(3-((pyridin-3-ylmethyl)amino)-1H-pyrazolo[4,3-c]pyridin-6-yl)urea] has an IC50 of 0.7 nM.
With C[C@@H](NC(=O)Nc1cc2[nH]nc(NC(=O)C3CC3)c2cn1)c1ccccc1 [Example 317, (R)—N-(6-(3-(1-phenylethyl)ureido)-1H-pyrazolo[4,3-c]pyridin-3-yl)cyclopropanecarboxamide] the IC50 was 1 nM.
In the case of COCC(=O)Nc1n[nH]c2cc(NC(=O)N[C@H](C)c3ccccc3)ncc12 [Example 318, (R)-2-methoxy-N-(6-(3-(1-phenylethyl)ureido)-1H-pyrazolo[4,3-c]pyridin-3-yl)acetamide], the IC50 is reported as 2.2 nM.
For COC[C@@H](NC(=O)Nc1cc2[nH]nc(NC(=O)C(C)C)c2cn1)c1ccccc1 [Example 319, (S)-N-(6-(3-(2-methoxy-1-phenylethyl)ureido)-1H-pyrazolo[4,3-c]pyridin-3-yl)-isobutyramide], the IC50 was 0.4 nM.
CCNc1n[nH]c2cc(NC(=O)NC(CC)c3ccccn3)ncc12 (stereo not drawn) [Example 320, 1-(3-(ethylamino)-1H-pyrazolo[4,3-c]pyridin-6-yl)-3-(1-(pyridin-2-yl)propyl)urea] was tested, and the IC50 was 33 nM.
COC(=O)Nc1n[nH]c2cc(NC(=O)N[C@H](C)c3ccc(F)cc3)ncc12 [Example 321, (R)-methyl (6-(3-(1-(4-fluorophenyl)ethyl)ureido)-1H-pyrazolo[4,3-c]pyridin-3-yl)carbamate] was tested, and the IC50 was 2.6 nM.
For COC[C@H](NC(=O)Nc1ncc2c(NC(C)C)n[nH]c2c1F)c1ccccc1 [Example 323, 1-{7-fluoro-3-[(1-methylethyl)amino]-1H-pyrazolo[4,3-c]pyridin-6-yl}-3-[(1R)-2-methoxy-1-phenylethyl]urea], the IC50 was 4.1 nM.
In the case of CC(C)Nc1n[nH]c2cc(NC(=O)N[C@H](C)c3ccccc3)ncc12 [Example 325, 1-{3-[(1-methyl-ethyl)amino]-1H-pyrazolo[4,3-c]-pyridin-6-yl}-3-[(1R)-1-phenylethyl]urea], the IC50 is reported as 1.5 nM.
With C[C@@H](NC(=O)Nc1cc2[nH]nc(NC3CCOCC3)c2cn1)c1ccccc1 [Example 327, 1-[(1R)-1-phenylethyl]-3-[3-(tetrahydro-2H-pyran-4-ylamino)-1H-pyrazolo[4,3-c]pyridin-6-yl]urea] the IC50 was 1 nM.
Compound COC[C@@H](NC(=O)Nc1cc2[nH]nc(NC3CCOCC3)c2cn1)c1ccccc1 [Example 328, 1-[(1S)-2-methoxy-1-phenylethyl]-3-[3-(tetrahydro-2H-pyran-4-ylamino)-1H-pyrazolo[4,3-c]pyridin-6-yl]urea] has an IC50 of 0.8 nM.
COC[C@@H](NC(=O)Nc1cc2[nH]nc(NC3CC3)c2cn1)c1ccccc1 [Example 329, 1-[3-(cyclopropyl-amino)-1H-pyrazolo[4,3-c]-pyridin-6-yl]-3-[(1S)-2-methoxy-1-phenylethyl]urea] was tested, and the IC50 was 1 nM.
